target: T1, human 5-HT6 receptor (Homo sapiens, UniProt P50406); assay: Human 5-HT6 Receptor Binding Assay ([3H]LSD, scintillation beads); conditions: Human 5-HT6 Ki (nM), actual data; membranes of CHO-K1 cells with recombinant human 5-HT6 receptor, 4 nM [3H]LSD
T1 construct: host or cells: CHO-K1 cells, stably transfected; membranes prepared in house
Method in brief: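 Membranes from CHO-K1 cells stably expressing human 5-HT6, 1.75 μg protein/well with scintillation beads, in 50 mM Tris pH 7.4, 4 mM CaCl2, saponin, ascorbic acid. Nonspecific binding with 10 μM serotonin. IC50 from variable-slope fit; Ki by Cheng-Prusoff.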

T1 sequence (P50406 whole entry): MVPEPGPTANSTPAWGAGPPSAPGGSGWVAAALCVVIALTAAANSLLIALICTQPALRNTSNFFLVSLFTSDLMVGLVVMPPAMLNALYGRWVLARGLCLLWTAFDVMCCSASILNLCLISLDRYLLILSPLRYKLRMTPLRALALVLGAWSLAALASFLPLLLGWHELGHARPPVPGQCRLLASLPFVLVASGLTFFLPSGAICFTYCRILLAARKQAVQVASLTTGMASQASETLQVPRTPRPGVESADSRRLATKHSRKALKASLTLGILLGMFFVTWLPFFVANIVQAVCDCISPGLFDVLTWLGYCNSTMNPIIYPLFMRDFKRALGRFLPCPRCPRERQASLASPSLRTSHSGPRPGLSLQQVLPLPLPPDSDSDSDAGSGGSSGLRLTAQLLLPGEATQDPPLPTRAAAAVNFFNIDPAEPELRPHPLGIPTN

SMILES	Ki [nM]
Cc1cccc([S+]([O-])c2ccc3c(c2)OCC2NCCC32)n1 (single isomer, unassigned) [Example 22, 7-[(6-methylpyridin-2-yl)sulfinyl]-1,2,3,3a,4,9b-hexahydrochromeno[3,4-b]pyrrole]	51.5
COc1cncc(S(=O)(=O)c2ccc3c(c2)OCC2NCCC32)c1 (racemic) [Example 110, 7-[(5-methoxypyridin-3-yl)sulfonyl]-1,2,3,3a,4,9b-hexahydrochromeno[3,4-b]pyrrole]	98.4

same assay, conditions: Human 5-HT6 Ki app (nM), membranes of CHO-K1 cells with recombinant human 5-HT6 receptor, 4 nM [3H]LSD, Cheng-Prusoff

SMILES	Ki [nM]
Cc1cccc([S+]([O-])c2ccc3c(c2)OCC2NCCC32)n1 (single isomer, unassigned) [Example 22, 7-[(6-methylpyridin-2-yl)sulfinyl]-1,2,3,3a,4,9b-hexahydrochromeno[3,4-b]pyrrole]	< 500
COc1cncc(S(=O)(=O)c2ccc3c(c2)OCC2NCCC32)c1 (racemic) [Example 110, 7-[(5-methoxypyridin-3-yl)sulfonyl]-1,2,3,3a,4,9b-hexahydrochromeno[3,4-b]pyrrole]	< 500
O=S(=O)(c1cncc(F)c1)c1ccc2c(c1)OCC1NCCC21 (single isomer, unassigned) [Example 32, 7-[(5-fluoropyridin-3-yl)sulfonyl]-1,2,3,3a,4,9b-hexahydrochromeno[3,4-b]pyrrole]	> 1000

same assay, conditions: membranes of CHO-K1 cells with recombinant human 5-HT6 receptor, 4 nM [3H]LSD, Cheng-Prusoff; read-out: Human 5-HT6 Ki app

Ki [nM]	SMILES
< 500	O=S(=O)(c1ccccc1)c1ccc2c(c1)OCC1C2CCN1C1CCCC1 (single isomer, unassigned) [Example 61, 3-cyclopentyl-7-(phenylsulfonyl)-1,2,3,3a,4,9b-hexahydrochromeno[3,4-b]pyrrole]
> 1000	COc1cncc(S(=O)(=O)c2ccc3c(c2)OCC2C3CCN2C2CCC2)c1 (single isomer, unassigned) [Example 74, 3-cyclobutyl-7-[(5-methoxypyridin-3-yl)sulfonyl]-1,2,3,3a,4,9b-hexahydrochromeno[3,4-b]pyrrole]
> 1000	O=S(=O)(c1ccccc1)c1ccc2c(c1)OCC1C2CCN1C1CCC1 (single isomer, unassigned) [Example 60, 3-cyclobutyl-7-(phenylsulfonyl)-1,2,3,3a,4,9b-hexahydrochromeno[3,4-b]pyrrole]
> 1000	O=S(=O)(c1ccccc1)c1ccc2c(c1)OCC1C2CCN1C1CCOC1 (single isomer, unassigned) [Example 66, 7-(phenylsulfonyl)-3-(tetrahydrofuran-3-yl)-1,2,3,3a,4,9b-hexahydrochromeno[3,4-b]pyrrole]
> 1000	COc1cncc(S(=O)(=O)c2ccc3c(c2)OCC2C3CCN2C2CCC2)c1 (single isomer, unassigned) [Example 79, 3-cyclobutyl-7-[(5-methoxypyridin-3-yl)sulfonyl]-1,2,3,3a,4,9b-hexahydrochromeno[3,4-b]pyrrole]
> 1000	Cc1cccc(S(=O)(=O)c2ccc3c(c2)OCC2C3CCN2C2CCC2)n1 (single isomer, unassigned) [Example 84, 3-cyclobutyl-7-[(6-methylpyridin-2-yl)sulfonyl]-1,2,3,3a,4,9b-hexahydrochromeno[3,4-b]pyrrole]
> 1000	O=S(=O)(c1cncc(F)c1)c1ccc2c(c1)OCC1C2CCN1C1CCC1 (single isomer, unassigned) [Example 80, 3-cyclobutyl-7-[(5-fluoropyridin-3-yl)sulfonyl]-1,2,3,3a,4,9b-hexahydrochromeno[3,4-b]pyrrole]
> 1000	Cc1cccc(S(=O)(=O)c2ccc3c(c2)OCC2C3CCN2C2CCC2)n1 (single isomer, unassigned) [Example 85, 3-cyclobutyl-7-[(6-methylpyridin-2-yl)sulfonyl]-1,2,3,3a,4,9b-hexahydrochromeno[3,4-b]pyrrole]
500 to 1000	O=S(=O)(c1ccccc1)c1ccc2c(c1)OCC1C2CCN1C1CCC1 (single isomer, unassigned) [Example 59, 3-cyclobutyl-7-(phenylsulfonyl)-1,2,3,3a,4,9b-hexahydrochromeno[3,4-b]pyrrole]
> 1000	Cc1cccc(Sc2ccc3c(c2)OCC2C3CCN2C2CCC2)n1 (single isomer, unassigned) [Example 82, 3-cyclobutyl-7-[(6-methylpyridin-2-yl)sulfanyl]-1,2,3,3a,4,9b-hexahydrochromeno[3,4-b]pyrrole]

Continued, compound first:

SMILES	Ki [nM]
O=S(=O)(c1ccccc1)c1ccc2c(c1)OCC1NCCC21 (single isomer, unassigned) [Example 55, 7-(phenylsulfonyl)-1,2,3,3a,4,9b-hexahydrochromeno[3,4-b]pyrrole]	< 500
O=S(=O)(c1cccc(OC(F)(F)F)c1)c1ccc2c(c1)OCC1NCCC21 (single isomer, unassigned) [Example 16, 7-{[3-(trifluoromethoxy)phenyl]sulfonyl}-1,2,3,3a,4,9b-hexahydrochromeno[3,4-b]pyrrole]	< 500
CC(C)CN1CCC2c3ccc(S(=O)(=O)c4ccccc4)cc3OCC21 (single isomer, unassigned) [Example 91, 3-(2-methylpropyl)-7-(phenylsulfonyl)-1,2,3,3a,4,9b-hexahydrochromeno[3,4-b]pyrrole]	< 500
O=S(=O)(c1ccccc1)c1ccc2c(c1)OCC1C2CCN1CC1CCCC1 (single isomer, unassigned) [Example 70, 3-(cyclopentylmethyl)-7-(phenylsulfonyl)-1,2,3,3a,4,9b-hexahydrochromeno[3,4-b]pyrrole]	< 500
O=S(=O)(c1ccc2c(c1)OCC1NCCC21)c1cccc2c1CCO2 (single isomer, unassigned) [Example 45, 7-(2,3-dihydro-1-benzofuran-4-ylsulfonyl)-1,2,3,3a,4,9b-hexahydrochromeno[3,4-b]pyrrole]	< 500
O=S(=O)(c1ccccc1)c1ccc2c(c1)OCC1C2CCN1CCO (single isomer, unassigned) [Example 90, 2-[7-(Phenylsulfonyl)-1,3a,4,9b-tetrahydrochromeno[3,4-b]pyrrol-3(2H)-yl]ethanol]	< 500
CC(C)Oc1cccc(S(=O)(=O)c2ccc3c(c2)OCC2NCCC32)c1 (racemic) [Example 107, 7-{[3-(propan-2-yloxy)phenyl]sulfonyl}-1,2,3,3a,4,9b-hexahydrochromeno[3,4-b]pyrrole]	< 500
O=S(=O)(c1cncc(C(F)(F)F)c1)c1ccc2c(c1)OCC1NCCC21 (single isomer, unassigned) [Example 52, 7-{[5-(trifluoromethyl)pyridin-3-yl]sulfonyl}-1,2,3,3a,4,9b-hexahydrochromeno[3,4-b]pyrrole]	500 to 1000
O=S(=O)(c1ccccc1)c1ccc2c(c1)OCC1C2CCN1CC1CCCC1 (single isomer, unassigned) [Example 71, 3-(cyclopentylmethyl)-7-(phenylsulfonyl)-1,2,3,3a,4,9b-hexahydrochromeno[3,4-b]pyrrole]	> 1000
O=S(=O)(c1ccc(F)cc1)c1ccc2c(c1)OCC1NCCC21 (single isomer, unassigned) [Example 13, 7-[(4-fluorophenyl)sulfonyl]-1,2,3,3a,4,9b-hexahydrochromeno[3,4-b]pyrrole]	< 500
O=S(=O)(c1ccccc1)c1ccc2c(c1)OCC1C2CCN1CC(F)F (single isomer, unassigned) [Example 67, 3-(2,2-difluoroethyl)-7-(phenylsulfonyl)-1,2,3,3a,4,9b-hexahydrochromeno[3,4-b]pyrrole]	< 500
O=S(=O)(c1ccccc1)c1ccc2c(c1)C1CCNC1CO2 (single isomer, unassigned) [Example 53, 8-(phenylsulfonyl)-1,2,3,3a,4,9b-hexahydrochromeno[3,4-b]pyrrole]	< 500
O=S(=O)(c1ccccc1)c1ccc2c(c1)OCC1C2CCN1Cc1ccccc1 (single isomer, unassigned) [Example 95, 3-benzyl-7-(phenylsulfonyl)-1,2,3,3a,4,9b-hexahydrochromeno[3,4-b]pyrrole]	< 500
